In US6030823A, “D-aminoacylase” (Daicel Chemical Industries, Ltd., priority 1998, dated 2000) one finds Activity, Specific activity and Relative activity data, which are given here for twelve compounds.

Molecules are shown by their SMILES.

The first assay has as its system Sebekia benihana IFO14309. The assay is described as follows: Induction of D-aminoacylase, experiment 1 (PY liquid medium, 0.10% inducer). The class given is cell-based. To be noted: 20 mM N-acetyl-D-methionine, 30° C., 20 min. As for the experimental part: First, Sebekia benihana IFO14309 was cultured with shaking for 74 hours in test tubes, each containing 8.0 ml of PY liquid medium (0.2% glycerol, 2.0% yeast extract, 2.0% polypeptone, pH 7.3) supplemented with 0.10% DL-leucine, 0.10% N-acetyl-DL-leucine, 0.10% DL-methionine, 0.10% N-acetyl-DL-methionine, DL-valine, or 0.10% N-acetyl-DL-valine as inducers (experiment 1).
(§1) From the culture broth obtained in experiments 1, 2, and 3, the cells were collected by centrifugation at 8000 rpm (7000×g) for 20 min with a refrigerated centrifuge (Hitachi Koki Co., Ltd.). The collected cells were washed with 50 mM Tris-HCl buffer (pH 7.5), collected again by centrifugation using the same centrifuge, then stored at -20° C.
(§2) The stored cells were suspended in 20 ml of 50 mM Tris-HCl buffer (pH 7.5) and were disrupted by sonication at 200 W for 15 min. The lysate was centrifuged at 15,000 rpm for 30 min with the above centrifuge, and the supernatant was obtained as a crude enzyme solution.
(§3) The enzymatic reaction was performed in 1.0 ml of a reaction system containing 20 mM N-acetyl-D-methionine, 50 mM Tris-HCl buffer (pH 7.5), 1 mM CoCl2, and 100 μl of the enzyme solution at 30° C. for 20 min (experiment 1), 10 min (experiment 2), and 5 min (experiment 3). The reaction was stopped by adding a TCA solution.
Regarding `CC(C)C(N)C(=O)O` (racemic) [DL-Valine, DL-valine], the Activity is given as 0.429 U/ml of broth and the Specific activity was determined as 0.133 U/mg.

Consider `CC(=O)NC(CC(C)C)C(=O)O` (racemic) [N-Ac-DL-Leucine, N-acetyl-DL-leucine], for which the Activity is reported as 0.158 U/ml of broth and the Specific activity amounted to 0.0545 U/mg.

Another assay relates to Sebekia benihana IFO14309. Description: Induction of D-aminoacylase, experiment 2 (seed culture, PY liquid medium, 0.10% inducer). To be noted: 20 mM N-acetyl-D-methionine, 30° C., 10 min. The class given is cell-based. Here is the method: Second, a seed culture was prepared by incubating the strain in test tubes, each containing 5.0 ml of PY liquid medium for 71 hours. Then, 0.4 ml of the seed culture was inoculated with a 2-ml Komagome pipette into test tubes, each containing 8.0 ml of PY liquid medium supplemented with 0.10% DL-glutamine, 0.10% DL-histidine, 0.10% DL-isoleucine, 0.10% DL-phenylalanine, 0.10% proline, 0.10% DL-threonine, 0.10% DL-tryptophan, or 0.10% DL-valine as inducers, and cultivated for 74 hours with shaking (experiment 2).
as §1, §2, §3
Consider `CC(C)C(N)C(=O)O` (racemic) [DL-Valine, DL-valine], for which the Activity is 0.239 U/ml of broth and the Specific activity came out at 0.0920 U/mg.

The next assay has as its system D-aminoacylase derived from Sebekia benihana IFO14309. The assay is described as follows: Substrate specificity of the aminoacylase. The class given is biochemical. To be noted: 20 mM substrate, 50 mM Tris-HCl pH 7.5, 30° C., 5 min. As for the experimental part:
The substrate specificity of the aminoacylase was examined using N-acetyl-D-methionine, N-acetyl-D-alanine, N-acetyl-D-aspartic acid, N-acetyl-D-leucine, N-acetyl-D-phenylalanine, N-acetyl-D-tryptophan, N-acetyl-D-valine, N-acetyl-L-leucine, N-acetyl-L-methionine, and N-acetyl-L-valine as substrates. The enzyme activity was assayed as follows. A 0.050-ml aliquot of an enzyme solution was added to 0.950 ml of 20 mM N-acetyl-D(or L)-amino acid in 50 mM Tris-HCl buffer (pH 7.5) and incubated at 30° C. for 5 min. The reaction was then stopped by adding 0.50 ml of a TCA solution to the reaction mixture. The relative activity is shown in Table 5, taking the activity for N-acetyl-L-methionine as 100%.
`CC(=O)N[C@@H](CC(C)C)C(=O)O` [N-Ac-L-Leu, N-acetyl-L-leucine]: the Relative activity is 0%.

As to `CC(=O)N[C@H](CC(N)=O)C(=O)O` [N-Ac-D-Asn, N-acetyl-D-asparagine], the Relative activity is given as 1.4%.

As to `CC(=O)N[C@H](Cc1c[nH]c2ccccc12)C(=O)O` [N-Ac-D-Trp, N-acetyl-D-tryptophan], the Relative activity worked out at 64%.

On to `CC(=O)N[C@H](C)C(=O)O` [N-Ac-D-Ala, N-acetyl-D-alanine], for which the Relative activity is given as 1.1%.

As for `CC(=O)N[C@H](CC(C)C)C(=O)O` [N-Ac-D-Leu, N-acetyl-D-leucine], the Relative activity was 255%.

With `CC(=O)N[C@@H](C(=O)O)C(C)C` [N-Ac-D-Val, N-acetyl-D-valine], the Relative activity is on record as 33%.

For `CC(=O)N[C@H](Cc1ccccc1)C(=O)O` [N-Ac-D-Phe, N-acetyl-D-phenylalanine], the Relative activity amounted to 100%.

As to `CC(=O)N[C@H](C(=O)O)C(C)C` [N-Ac-L-Val, N-acetyl-L-valine], the Relative activity worked out at 0%.

`CSCC[C@@H](NC(C)=O)C(=O)O` [N-Ac-D-Met, N-acetyl-D-methionine]: the Relative activity was determined as 100%.

In the case of `CSCC[C@H](NC(C)=O)C(=O)O` [N-Ac-L-Met, N-acetyl-L-methionine], the Relative activity came to 0%.
